Test results from patent US20240415845A1, “Compositions of Iboga Alkaloids and Methods of Treatment” (priority 2022, published 2024).

Tested on: special operations veterans with combat and/or blast exposure
Assay: Functional MRI: resting-state functional connectivity and lag projection analysis
Format: in vivo, human
Experimental: Functional magnetic resonance imaging (fMRI) was performed on the subjects enrolled in the study described in Example 1. Neuroimaging is a branch of medical imaging that focuses on the brain. It utilizes techniques of physics, optics, and mathematics to quantify brain structure and function. […] During resting, subjects are asked to do nothing and the aim is to observe the brain at rest. When the subject is asked to perform a task, the aim is to observe how the brain works in response to the task. Other magnetic resonance based imaging techniques include: anatomical, which measures cortical thickness, area, gyrification, and volume: arterial spin labelling, which quantitatively measures tissue perfusion, cerebral blood flow, where perfusion refers to the delivery of oxygen and nutrients to tissue by means of blood flow: and, diffusion tensor imaging, which measures diffusion of water through white natter, such as neural fiber tracts. fMRI can provide a series of images that form a film, as opposed to a single image obtained in MRI.
The human brain is a series of well-organized and optimized series of efficient networks. […] The functional connectivity networks evaluated in a region of interest in the brain included those identified in Table 2-1 of Example 2.
fMRI data was also analyzed to inspect activity patterns as a function of time. […]

## CCC1CC2CC3c4[nH]c5ccc(OC)cc5c4CCN(C2)C13 (centres unmarked) [ibogaine, Ibogaine]
Baseline vs about four days post treatment, paired T-test, fwec p<0.001
  lag projection of BOLD fMRI in left orbitofrontal gyrus and inferior frontal gyrus: relative slowing
Within a few days after treatment, persisted to one-month post treatment
  functional connection pairs in the brain networks reorganized (resting state functional connectivity): 22
